Measurements from ChEMBL document CHEMBL2380203, “Structure-activity relationship of cytochrome bc1 reductase inhibitor broad spectrum antifungal ilicicolin H” (Bioorg Med Chem Lett, 2013).
Values after ≈ are worked out from the molar mass of the structure shown.

What was measured:
Candida albicans [1] = experiment: Ratio of IC50 for Candida albicans MY1055 NADH:cytochrome bc1 reductase in presence of 40% mouse plasma to IC50 for Candida albicans MY1055 NADH:cytochrome bc1 reductase in absence of mouse plasma
[2] = Inhibition of Candida albicans MY1055 NADH:cytochrome bc1 reductase
Candida albicans [3] = experiment: Antifungal activity against Candida albicans MY1055 assessed as growth inhibition after 24 hrs by liquid microdilution assay in presence of 10% mouse plasma; type: functional
[4] = Inhibition of rat liver NADH:cytochrome bc1 reductase
Candida albicans [5] = experiment: Antifungal activity against Candida albicans MY1055 assessed as growth inhibition after 24 hrs by liquid microdilution assay in presence of 10% mouse plasma
[6] = Inhibition of Candida albicans MY1055 NADH:cytochrome bc1 reductase in presence of 40% mouse plasma; type: cell-free
Candida albicans [7] = experiment: Antifungal activity against Candida albicans MY1055 assessed as growth inhibition after 24 hrs by liquid microdilution assay; type: functional; details: MY1055, 24 h
Candida albicans [8] = experiment: Ratio of MIC for Candida albicans MY1055 in presence of 10% mouse plasma to MIC for Candida albicans MY1055 in absence of mouse plasma; type: functional
[9] = Selectivity ratio of IC50 for Candida albicans MY1055 NADH:cytochrome bc1 reductase to IC50 for rat liver NADH:cytochrome bc1 reductase

SMILES | Ratio IC50 (Candida albicans [1]) | IC50 [2] | MIC (Candida albicans [3]) | IC50 [4] | MIC (Candida albicans [5]) | IC50 [6] | MIC (Candida albicans [7]) | Ratio (Candida albicans [8]) | Ratio IC50 [9]
CC1=C[C@@H](C(=O)c2c(O)c(-c3ccc(O)cc3)c[nH]c2=O)[C@H]([C@@H]2OC2C)[C@H]2C[C@@H](C)CC[C@H]12 (stereo not given in full) | 192 | 5.2 ng/mL (≈ 0.0116 µM) | > 1000 ng/mL | 1000 ng/mL (≈ 2.22 µM) | > 1000 ng/mL | 1000 ng/mL | 625 ng/mL (≈ 1.39 µM) | – | –
C/C=C/[C@@H]1[C@H]2C[C@@H](COC(=O)C3CC3)CC[C@@H]2C(C)=C[C@H]1C(=O)c1c(O)c(-c2ccc(O)cc2)c[nH]c1=O | 20 | 1.2 ng/mL (≈ 0.00232 µM) | 250 ng/mL | 40 ng/mL (≈ 0.0773 µM) | – | 40 ng/mL | 31.3 ng/mL (≈ 0.0605 µM) | 8 | –
C/C=C/[C@@H]1[C@H]2C[C@@H](C)CC[C@@H]2C(C)=C[C@H]1C(=O)c1c(O)c(-c2ccc(OC(=O)/C=C/c3cnc[nH]3)cc2)c[nH]c1=O | 43 | 1 ng/mL (≈ 0.00181 µM) | 1000 ng/mL | 8 ng/mL (≈ 0.0144 µM) | – | 150 ng/mL | 31 ng/mL (≈ 0.056 µM) | 16 | –
C/C=C/[C@@H]1[C@H]2C[C@@H](C)CC[C@@H]2C(C)=C[C@H]1C(=O)c1c(O)c(-c2ccc(O)cc2)c[nH]c1=O [ILICICOLIN H] | 140 | 0.5 ng/mL (≈ 0.00115 µM) | > 1000 ng/mL | 2000 ng/mL (≈ 4.61 µM) | – | 70 ng/mL | 20 ng/mL (≈ 0.0461 µM) | >25 | > 1000
C/C=C/[C@@H]1[C@H]2C[C@@H](COC(C)=O)CC[C@@H]2C(C)=C[C@H]1C(=O)c1c(O)c(-c2ccc(OC(C)=O)cc2)c[nH]c1=O | 7 | 15 ng/mL (≈ 0.0281 µM) | 1000 ng/mL | > 800 ng/mL | – | 100 ng/mL | 62 ng/mL (≈ 0.116 µM) | 8 | –
C/C=C/[C@@H]1[C@H]2C[C@@H](C)CC[C@@H]2C(C)=C[C@H]1C(=O)c1c(O)c(-c2ccc(OC(=O)CCCN)cc2)c[nH]c1=O | 150 | 0.2 ng/mL (≈ 0.000386 µM) | – | 45 ng/mL (≈ 0.0868 µM) | – | 30 ng/mL | 31 ng/mL (≈ 0.0598 µM) | – | –
C/C=C/[C@@H]1[C@H]2C[C@@H](C)CC[C@@H]2C(C)=C[C@H]1C(=O)c1c(O)c(-c2ccc(OC(=O)CCCCN)cc2)c[nH]c1=O | 300 | 0.1 ng/mL (≈ 0.000188 µM) | – | 40 ng/mL (≈ 0.0751 µM) | – | 30 ng/mL | 31 ng/mL (≈ 0.0582 µM) | – | –
C/C=C/[C@@H]1[C@H]2C[C@@H](C)CC[C@@H]2C(C)=C[C@H]1C(=O)c1c(O)c(-c2ccc(O)cc2)cn(CCN(CC)CC)c1=O | 250 | 20 ng/mL (≈ 0.0375 µM) | > 1000 ng/mL | > 1000 ng/mL | – | 5000 ng/mL | > 1000 ng/mL | – | –
C/C=C/[C@@H]1[C@H]2C[C@@H](C)CC[C@@H]2C(C)=C[C@H]1C(=O)c1c(O)c(-c2ccc(OC(=O)C3CC3)cc2)c[nH]c1=O | – | 15 ng/mL (≈ 0.0299 µM) | – | > 800 ng/mL | – | – | 62 ng/mL (≈ 0.124 µM) | – | –
C/C=C/[C@@H]1[C@H]2C[C@@H](C)CC[C@@H]2C(C)=C[C@H]1C(=O)c1c(O)c(-c2ccc(OCC)cc2)c[nH]c1=O | – | 1000 ng/mL (≈ 2.17 µM) | – | 1000 ng/mL (≈ 2.17 µM) | – | – | > 5000 ng/mL | – | –
C/C=C/[C@@H]1[C@H]2C[C@@H](C)CC[C@@H]2[C@](C)(Br)[C@H]2Oc3ncc(-c4ccc(O)c(Br)c4Br)c(O)c3C(=O)[C@@H]12 | – | 1000 ng/mL (≈ 1.49 µM) | – | 1000 ng/mL (≈ 1.49 µM) | – | – | > 5000 ng/mL | – | –
C/C=C/[C@@H]1[C@H]2C[C@@H](C)CC[C@@H]2C(C)=C[C@H]1C(=O)c1c(O)c(-c2ccc(OC(=O)Cc3ccccc3)cc2)c[nH]c1=O | – | 0.5 ng/mL (≈ 0.000906 µM) | – | 1000 ng/mL (≈ 1.81 µM) | – | – | 250 ng/mL (≈ 0.453 µM) | – | –
C/C=C/[C@@H]1[C@H]2C[C@@H](C)CC[C@@H]2[C@](C)(Br)[C@H]2Oc3ncc(-c4ccc(O)c(Br)c4)c(O)c3C(=O)[C@@H]12 | – | > 1000 ng/mL | – | 1000 ng/mL (≈ 1.69 µM) | – | – | > 5000 ng/mL | – | –
C/C=C/[C@@H]1[C@H]2C[C@@H](C)CC[C@@H]2[C@](C)(I)[C@H]2Oc3ncc(-c4ccc(O)cc4)c(O)c3C(=O)[C@@H]12 | – | 1000 ng/mL (≈ 1.79 µM) | – | 1000 ng/mL (≈ 1.79 µM) | – | – | > 5000 ng/mL | – | –
